Test results taken from patent publication US9708314B2, “Heterocyclic amide compound” (NISSAN CHEMICAL INDUSTRIES, LTD., priority 2013, dated 2017).

What was measured:
Assay in all cases: Test Example 1: herbicidal activity, application before weed generation in submerged conditions
Type in all cases: in vivo
Conditions in all cases: Application herbicide amount 320 g/ha; Seventeenth Table
Monochoria vaginalis = tested on: Monochoria vaginalis
Procedure, shortened: (§1)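 Pre-emergence water-surface application under 4 cm flooding, same day as sowing, with rice transplanted at 2.5 leaf stage. Dose given as g/ha. Plants grown at 25° C. to 30° C. and rated three weeks later on a 0 (≤5%) to 5 (≥90%) herbicidal-ratio scale.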

Scirpus juncoides = tested on: Scirpus juncoides
Procedure, shortened: as §1

[1] = tested on: Echinochloa oryzacola Vasing.
Procedure, shortened: as §1

COC(=O)Cn1nnnc1NC(=O)c1ccc(C(F)(F)F)n2c(C(C)C)nnc12 [2-046]
C: Monochoria vaginalis (herbicidal effect grade) (Monochoria vaginalis): 0 (Herbicidal ratio of 5% or less (almost no effect))
B: Scirpus juncoides (herbicidal effect grade) (Scirpus juncoides): 0 (Herbicidal ratio of 5% or less (almost no effect))
A: Echinochloa oryzicola Vasing. (herbicidal effect grade) [1]: 4 (Herbicidal ratio of 70% or more and less than 90%)

CC(C)c1nnc2c(C(=O)Nc3nnnn3C)ccc(C(F)F)n12 [2-047]
C: Monochoria vaginalis (herbicidal effect grade) (Monochoria vaginalis): 5 (Herbicidal ratio of 90% or more (almost completely withered))
B: Scirpus juncoides (herbicidal effect grade) (Scirpus juncoides): 4 (Herbicidal ratio of 70% or more and less than 90%)
A: Echinochloa oryzicola Vasing. (herbicidal effect grade) [1]: 5 (Herbicidal ratio of 90% or more (almost completely withered))

CSCCn1nnnc1NC(=O)c1ccc(C(F)(F)F)n2c(C(C)C)nnc12 [2-048]
C: Monochoria vaginalis (herbicidal effect grade) (Monochoria vaginalis): 4 (Herbicidal ratio of 70% or more and less than 90%)
B: Scirpus juncoides (herbicidal effect grade) (Scirpus juncoides): 5 (Herbicidal ratio of 90% or more (almost completely withered))
A: Echinochloa oryzicola Vasing. (herbicidal effect grade) [1]: 5 (Herbicidal ratio of 90% or more (almost completely withered))

CC(C)c1nnc2c(C(=O)Nc3nnnn3C)ccc(C(F)(F)C(F)(F)F)n12 [2-049]
C: Monochoria vaginalis (herbicidal effect grade) (Monochoria vaginalis): 4 (Herbicidal ratio of 70% or more and less than 90%)
B: Scirpus juncoides (herbicidal effect grade) (Scirpus juncoides): 5 (Herbicidal ratio of 90% or more (almost completely withered))
A: Echinochloa oryzicola Vasing. (herbicidal effect grade) [1]: 5 (Herbicidal ratio of 90% or more (almost completely withered))

CN(C)c1nnc2c(C(=O)Nc3nnnn3C)ccc(C(F)(F)F)n12 [2-051]
C: Monochoria vaginalis (herbicidal effect grade) (Monochoria vaginalis): 5 (Herbicidal ratio of 90% or more (almost completely withered))
B: Scirpus juncoides (herbicidal effect grade) (Scirpus juncoides): 5 (Herbicidal ratio of 90% or more (almost completely withered))
A: Echinochloa oryzicola Vasing. (herbicidal effect grade) [1]: 5 (Herbicidal ratio of 90% or more (almost completely withered))

CSC(C)c1nnc2c(C(=O)Nc3nnnn3C)ccc(C(F)(F)F)n12 (stereo not drawn) [2-052]
C: Monochoria vaginalis (herbicidal effect grade) (Monochoria vaginalis): 5 (Herbicidal ratio of 90% or more (almost completely withered))
B: Scirpus juncoides (herbicidal effect grade) (Scirpus juncoides): 5 (Herbicidal ratio of 90% or more (almost completely withered))
A: Echinochloa oryzicola Vasing. (herbicidal effect grade) [1]: 5 (Herbicidal ratio of 90% or more (almost completely withered))

CC(c1nnc2c(C(=O)Nc3nnnn3C)ccc(C(F)(F)F)n12)[S+](C)[O-] (stereo not drawn) [2-053]
C: Monochoria vaginalis (herbicidal effect grade) (Monochoria vaginalis): 4 (Herbicidal ratio of 70% or more and less than 90%)
B: Scirpus juncoides (herbicidal effect grade) (Scirpus juncoides): 5 (Herbicidal ratio of 90% or more (almost completely withered))
A: Echinochloa oryzicola Vasing. (herbicidal effect grade) [1]: 5 (Herbicidal ratio of 90% or more (almost completely withered))

CC(c1nnc2c(C(=O)Nc3nnnn3C)ccc(C(F)(F)F)n12)S(C)(=O)=O (stereo not drawn) [2-054]
C: Monochoria vaginalis (herbicidal effect grade) (Monochoria vaginalis): 5 (Herbicidal ratio of 90% or more (almost completely withered))
B: Scirpus juncoides (herbicidal effect grade) (Scirpus juncoides): 5 (Herbicidal ratio of 90% or more (almost completely withered))
A: Echinochloa oryzicola Vasing. (herbicidal effect grade) [1]: 5 (Herbicidal ratio of 90% or more (almost completely withered))

Cn1nnnc1NC(=O)c1ccc(C(F)(F)F)n2c(Nc3ccccc3)nnc12 [2-056]
C: Monochoria vaginalis (herbicidal effect grade) (Monochoria vaginalis): 3 (Herbicidal ratio of 40% or more and less than 70%)
B: Scirpus juncoides (herbicidal effect grade) (Scirpus juncoides): 4 (Herbicidal ratio of 70% or more and less than 90%)
A: Echinochloa oryzicola Vasing. (herbicidal effect grade) [1]: 4 (Herbicidal ratio of 70% or more and less than 90%)

CSCCc1nnc2c(C(=O)Nc3nnnn3C)ccc(C(F)(F)F)n12 [2-057]
C: Monochoria vaginalis (herbicidal effect grade) (Monochoria vaginalis): 4 (Herbicidal ratio of 70% or more and less than 90%)
B: Scirpus juncoides (herbicidal effect grade) (Scirpus juncoides): 4 (Herbicidal ratio of 70% or more and less than 90%)
A: Echinochloa oryzicola Vasing. (herbicidal effect grade) [1]: 4 (Herbicidal ratio of 70% or more and less than 90%)

Cn1nnnc1NC(=O)c1ccc(C(F)(F)F)n2c(CC[S+](C)[O-])nnc12 (stereo not drawn) [2-058]
C: Monochoria vaginalis (herbicidal effect grade) (Monochoria vaginalis): 5 (Herbicidal ratio of 90% or more (almost completely withered))
B: Scirpus juncoides (herbicidal effect grade) (Scirpus juncoides): 4 (Herbicidal ratio of 70% or more and less than 90%)
A: Echinochloa oryzicola Vasing. (herbicidal effect grade) [1]: 4 (Herbicidal ratio of 70% or more and less than 90%)

Cn1nnnc1NC(=O)c1ccc(C(F)(F)F)n2c(CCS(C)(=O)=O)nnc12 [2-059]
C: Monochoria vaginalis (herbicidal effect grade) (Monochoria vaginalis): 4 (Herbicidal ratio of 70% or more and less than 90%)
B: Scirpus juncoides (herbicidal effect grade) (Scirpus juncoides): 4 (Herbicidal ratio of 70% or more and less than 90%)
A: Echinochloa oryzicola Vasing. (herbicidal effect grade) [1]: 4 (Herbicidal ratio of 70% or more and less than 90%)

Cn1nnnc1NC(=O)c1ccc(C(F)(F)F)n2c(-c3ccc(Cl)nc3)nnc12 [2-060]
C: Monochoria vaginalis (herbicidal effect grade) (Monochoria vaginalis): 5 (Herbicidal ratio of 90% or more (almost completely withered))
B: Scirpus juncoides (herbicidal effect grade) (Scirpus juncoides): 5 (Herbicidal ratio of 90% or more (almost completely withered))
A: Echinochloa oryzicola Vasing. (herbicidal effect grade) [1]: 5 (Herbicidal ratio of 90% or more (almost completely withered))

Cn1nnnc1NC(=O)c1ccc(C(F)(F)F)n2c(-c3cccs3)nnc12 [2-061]
C: Monochoria vaginalis (herbicidal effect grade) (Monochoria vaginalis): 5 (Herbicidal ratio of 90% or more (almost completely withered))
B: Scirpus juncoides (herbicidal effect grade) (Scirpus juncoides): 5 (Herbicidal ratio of 90% or more (almost completely withered))
A: Echinochloa oryzicola Vasing. (herbicidal effect grade) [1]: 5 (Herbicidal ratio of 90% or more (almost completely withered))

Cc1cc(-c2nnc3c(C(=O)Nc4nnnn4C)ccc(C(F)(F)F)n23)n(C)n1 [2-062]
C: Monochoria vaginalis (herbicidal effect grade) (Monochoria vaginalis): 5 (Herbicidal ratio of 90% or more (almost completely withered))
B: Scirpus juncoides (herbicidal effect grade) (Scirpus juncoides): 5 (Herbicidal ratio of 90% or more (almost completely withered))
A: Echinochloa oryzicola Vasing. (herbicidal effect grade) [1]: 5 (Herbicidal ratio of 90% or more (almost completely withered))

COc1ccc(Cc2nnc3c(C(=O)Nc4nnnn4C)ccc(C(F)(F)F)n23)cc1 [2-065]
C: Monochoria vaginalis (herbicidal effect grade) (Monochoria vaginalis): 4 (Herbicidal ratio of 70% or more and less than 90%)
B: Scirpus juncoides (herbicidal effect grade) (Scirpus juncoides): 4 (Herbicidal ratio of 70% or more and less than 90%)
A: Echinochloa oryzicola Vasing. (herbicidal effect grade) [1]: 5 (Herbicidal ratio of 90% or more (almost completely withered))

CC(C)Nc1nnc2c(C(=O)Nc3nnnn3C)ccc(C(F)(F)F)n12 [2-066]
C: Monochoria vaginalis (herbicidal effect grade) (Monochoria vaginalis): 4 (Herbicidal ratio of 70% or more and less than 90%)
B: Scirpus juncoides (herbicidal effect grade) (Scirpus juncoides): 5 (Herbicidal ratio of 90% or more (almost completely withered))
A: Echinochloa oryzicola Vasing. (herbicidal effect grade) [1]: 5 (Herbicidal ratio of 90% or more (almost completely withered))

Cn1nnnc1NC(=O)c1ccc(C(F)(F)F)n2c([S+](C)[O-])nnc12 (stereo not drawn) [2-067]
C: Monochoria vaginalis (herbicidal effect grade) (Monochoria vaginalis): 4 (Herbicidal ratio of 70% or more and less than 90%)
B: Scirpus juncoides (herbicidal effect grade) (Scirpus juncoides): 4 (Herbicidal ratio of 70% or more and less than 90%)
A: Echinochloa oryzicola Vasing. (herbicidal effect grade) [1]: 5 (Herbicidal ratio of 90% or more (almost completely withered))

CCCSc1nnc2c(C(=O)Nc3nnnn3C)ccc(C(F)(F)F)n12 [2-068]
C: Monochoria vaginalis (herbicidal effect grade) (Monochoria vaginalis): 4 (Herbicidal ratio of 70% or more and less than 90%)
B: Scirpus juncoides (herbicidal effect grade) (Scirpus juncoides): 5 (Herbicidal ratio of 90% or more (almost completely withered))
A: Echinochloa oryzicola Vasing. (herbicidal effect grade) [1]: 5 (Herbicidal ratio of 90% or more (almost completely withered))

CCC[S+]([O-])c1nnc2c(C(=O)Nc3nnnn3C)ccc(C(F)(F)F)n12 (stereo not drawn) [2-069]
C: Monochoria vaginalis (herbicidal effect grade) (Monochoria vaginalis): 5 (Herbicidal ratio of 90% or more (almost completely withered))
B: Scirpus juncoides (herbicidal effect grade) (Scirpus juncoides): 5 (Herbicidal ratio of 90% or more (almost completely withered))
A: Echinochloa oryzicola Vasing. (herbicidal effect grade) [1]: 5 (Herbicidal ratio of 90% or more (almost completely withered))

CCCS(=O)(=O)c1nnc2c(C(=O)Nc3nnnn3C)ccc(C(F)(F)F)n12 [2-070]
C: Monochoria vaginalis (herbicidal effect grade) (Monochoria vaginalis): 5 (Herbicidal ratio of 90% or more (almost completely withered))
B: Scirpus juncoides (herbicidal effect grade) (Scirpus juncoides): 5 (Herbicidal ratio of 90% or more (almost completely withered))
A: Echinochloa oryzicola Vasing. (herbicidal effect grade) [1]: 5 (Herbicidal ratio of 90% or more (almost completely withered))

CC(C)CSc1nnc2c(C(=O)Nc3nnnn3C)ccc(C(F)(F)F)n12 [2-071]
C: Monochoria vaginalis (herbicidal effect grade) (Monochoria vaginalis): 5 (Herbicidal ratio of 90% or more (almost completely withered))
B: Scirpus juncoides (herbicidal effect grade) (Scirpus juncoides): 5 (Herbicidal ratio of 90% or more (almost completely withered))
A: Echinochloa oryzicola Vasing. (herbicidal effect grade) [1]: 5 (Herbicidal ratio of 90% or more (almost completely withered))

CCC(C)Sc1nnc2c(C(=O)Nc3nnnn3C)ccc(C(F)(F)F)n12 (stereo not drawn) [2-072]
C: Monochoria vaginalis (herbicidal effect grade) (Monochoria vaginalis): 5 (Herbicidal ratio of 90% or more (almost completely withered))
B: Scirpus juncoides (herbicidal effect grade) (Scirpus juncoides): 5 (Herbicidal ratio of 90% or more (almost completely withered))
A: Echinochloa oryzicola Vasing. (herbicidal effect grade) [1]: 5 (Herbicidal ratio of 90% or more (almost completely withered))

CC(C)c1nnc2c(C(=O)Nc3nnnn3-c3ccccc3)ccc(C(F)(F)F)n12 [2-073]
C: Monochoria vaginalis (herbicidal effect grade) (Monochoria vaginalis): 4 (Herbicidal ratio of 70% or more and less than 90%)
B: Scirpus juncoides (herbicidal effect grade) (Scirpus juncoides): 3 (Herbicidal ratio of 40% or more and less than 70%)
A: Echinochloa oryzicola Vasing. (herbicidal effect grade) [1]: 4 (Herbicidal ratio of 70% or more and less than 90%)

COCCNc1nnc2c(C(=O)Nc3nnnn3C)ccc(C(F)(F)F)n12 [2-074]
C: Monochoria vaginalis (herbicidal effect grade) (Monochoria vaginalis): 3 (Herbicidal ratio of 40% or more and less than 70%)
B: Scirpus juncoides (herbicidal effect grade) (Scirpus juncoides): 4 (Herbicidal ratio of 70% or more and less than 90%)
A: Echinochloa oryzicola Vasing. (herbicidal effect grade) [1]: 4 (Herbicidal ratio of 70% or more and less than 90%)

Cn1nnnc1NC(=O)c1ccc(C(F)(F)F)n2c(N3CCOCC3)nnc12 [2-075]
C: Monochoria vaginalis (herbicidal effect grade) (Monochoria vaginalis): 5 (Herbicidal ratio of 90% or more (almost completely withered))
B: Scirpus juncoides (herbicidal effect grade) (Scirpus juncoides): 5 (Herbicidal ratio of 90% or more (almost completely withered))
A: Echinochloa oryzicola Vasing. (herbicidal effect grade) [1]: 5 (Herbicidal ratio of 90% or more (almost completely withered))

Cn1nnnc1NC(=O)c1ccc(C(F)(F)F)n2c(SCc3ccccc3)nnc12 [2-076]
C: Monochoria vaginalis (herbicidal effect grade) (Monochoria vaginalis): 3 (Herbicidal ratio of 40% or more and less than 70%)
B: Scirpus juncoides (herbicidal effect grade) (Scirpus juncoides): 4 (Herbicidal ratio of 70% or more and less than 90%)
A: Echinochloa oryzicola Vasing. (herbicidal effect grade) [1]: 5 (Herbicidal ratio of 90% or more (almost completely withered))
